Results as given in ChEMBL document CHEMBL1201862, “PubChem BioAssay data set” (2004).
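Compound exposure: 48 hours, 5 concentrations, 96-well plates. At the GI50, growth is halved.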 The source made the active and inactive calls. No stated cut-off is given here; in the data, active = GI50 up to about 1.1 µM and inactive = higher.

What was measured:
Assay in all cases: NCI-60 cell line screen, 48 h
[1] = test system: CCRF-CEM
[2] = test system: OVCAR-5
[3] = test system: SF-295
[4] = test system: K562
[5] = test system: OVCAR-4
[6] = test system: M19-MEL
[7] = test system: NCI-H460
[8] = test system: HOP-18
[9] = test system: 786-0
[10] = test system: Malme-3M
[11] = test system: SF-539
[12] = test system: HOP-62
[13] = test system: CAKI-1
[14] = test system: HL-60
[15] = test system: LXFL 529
[16] = test system: MOLT-4
[17] = test system: KM-20L2
[18] = test system: HOP-92
[19] = test system: NCI-H522
[20] = test system: NCI-H23
[21] = test system: SN12C
[22] = test system: SNB-19
[23] = test system: SNB-75
[24] = test system: DMS-114
[25] = test system: A498
[26] = test system: A549
[27] = test system: DLD-1
[28] = test system: DMS-273
[29] = test system: SNB-78
[30] = test system: COLO 205
[31] = test system: UACC-257
[32] = test system: SF-268
[33] = test system: IGROV-1
[34] = test system: ACHN
[35] = test system: HCT-15
[36] = test system: TK-10
[37] = test system: RPMI-8226
[38] = test system: SR
[39] = test system: EKVX
[40] = test system: UO-31
[41] = test system: RXF 393
[42] = test system: UACC-62
[43] = test system: XF498
[44] = test system: HT-29
[45] = test system: SK-MEL-5
[46] = test system: OVCAR-8
[47] = test system: OVCAR-3
[48] = test system: SK-MEL-2
[49] = test system: SK-MEL-28
[50] = test system: HCC 2998
[51] = test system: U-251
[52] = test system: HCT-116
[53] = test system: NCI-H226
[54] = test system: M14
[55] = test system: SK-OV-3
[56] = test system: KM12
[57] = test system: SW-620
[58] = test system: LOX IMVI
[59] = test system: MCF7
[60] = test system: NCI/ADR-RES

Measured: GI50

CC(=O)NC1=C(C)C(=O)c2c(nc3n2CCC3O)C1=O (configuration not stated)
inactive: [1] 4.24 µM | [2] > 64.3 µM | [3] > 100 µM | [4] 19.1 µM | [5] 13.6 µM | [6] 25.6 µM | [7] > 87.7 µM | [8] > 100 µM | [9] 43.4 µM | [10] 19.1 µM | [11] 24.4 µM | [12] > 100 µM | [13] > 100 µM | [14] 8.28 µM | [15] 19.6 µM | [16] 3.44 µM | [17] > 72.1 µM | [18] 18.6 µM | [19] 23.7 µM | [20] 35.4 µM | [21] 37.3 µM | [22] > 100 µM | [23] > 100 µM | [24] 5.56 µM | [25] > 100 µM | [26] > 64 µM | [27] 39.5 µM | [28] 44.8 µM | [29] 31.3 µM | [30] > 100 µM | [31] 26.3 µM | [32] 34.8 µM | [33] > 54.2 µM | [34] > 100 µM | [36] > 100 µM | [37] 18.2 µM | [38] 9.46 µM | [39] 24.7 µM | [40] > 100 µM | [41] 21.5 µM | [42] 20.1 µM | [43] 18.2 µM | [44] > 100 µM | [45] 51.9 µM | [46] 20.4 µM | [47] 10.8 µM | [48] 19.5 µM | [49] > 76.4 µM | [50] 54 µM | [51] 33.1 µM | [52] 23.7 µM | [53] 27.4 µM | [54] > 100 µM | [55] > 61.7 µM | [56] > 100 µM | [57] 44.4 µM | [58] 29.7 µM
> 100 µM: [35]

O=C1C(=O)N(c2nccs2)C(=O)C(=O)C1c1nc2ccccc2s1
> 100 µM: [35]
inactive: [2] > 100 µM | [3] > 100 µM | [5] > 100 µM | [6] > 100 µM | [7] > 100 µM | [8] 9.23 µM | [9] > 100 µM | [10] > 100 µM | [11] > 100 µM | [12] > 100 µM | [13] > 100 µM | [15] 94 µM | [17] > 100 µM | [18] > 100 µM | [20] > 100 µM | [21] > 100 µM | [22] > 100 µM | [23] > 100 µM | [24] > 100 µM | [26] > 100 µM | [27] > 100 µM | [28] > 100 µM | [29] > 100 µM | [30] > 100 µM | [31] > 100 µM | [32] > 100 µM | [33] > 100 µM | [34] > 100 µM | [36] > 100 µM | [37] > 100 µM | [39] > 100 µM | [40] > 100 µM | [41] > 100 µM | [42] > 100 µM | [43] > 100 µM | [44] > 100 µM | [46] > 100 µM | [47] > 100 µM | [48] > 100 µM | [49] > 100 µM | [50] > 100 µM | [51] 83 µM | [52] > 100 µM | [53] > 100 µM | [54] > 100 µM | [55] > 100 µM | [56] > 100 µM | [57] > 100 µM | [58] > 100 µM

CCN(CC)C(=O)c1c(N2CCOCC2)cc(N(CC)CC)oc1=O
inactive: [1] > 100 µM | [3] > 100 µM | [4] > 100 µM | [5] > 100 µM | [6] > 100 µM | [7] > 100 µM | [8] > 100 µM | [9] > 100 µM | [10] > 100 µM | [11] > 100 µM | [12] > 100 µM | [14] > 100 µM | [15] > 100 µM | [16] > 100 µM | [17] > 100 µM | [18] > 100 µM | [19] > 100 µM | [20] > 100 µM | [21] > 100 µM | [22] > 100 µM | [23] > 100 µM | [24] > 100 µM | [25] > 100 µM | [26] > 100 µM | [27] > 100 µM | [28] > 100 µM | [29] > 100 µM | [30] > 100 µM | [31] > 100 µM | [32] > 100 µM | [33] > 100 µM | [34] > 100 µM | [36] > 100 µM | [37] > 100 µM | [38] > 100 µM | [39] > 100 µM | [40] > 100 µM | [41] > 100 µM | [42] > 100 µM | [43] > 100 µM | [44] > 100 µM | [46] > 100 µM | [47] > 100 µM | [48] > 100 µM | [49] > 100 µM | [50] > 100 µM | [51] > 100 µM | [52] > 100 µM | [53] > 100 µM | [54] > 100 µM | [55] > 100 µM | [56] > 100 µM | [57] > 100 µM | [58] > 100 µM
> 100 µM: [35]

O=C1CCCCN1
inactive: [1] > 1120 µM | [2] > 1120 µM | [3] > 1120 µM | [4] > 1120 µM | [5] > 1120 µM | [6] > 403 µM | [7] > 1120 µM | [8] 232 µM | [10] > 1120 µM | [11] > 1120 µM | [12] > 1120 µM | [13] > 1120 µM | [14] 706 µM | [16] 706 µM | [17] > 1120 µM | [18] > 1120 µM | [19] > 1120 µM | [20] > 1120 µM | [21] > 267 µM | [22] > 1120 µM | [23] > 1120 µM | [24] > 1120 µM | [25] > 52 µM | [26] > 1120 µM | [27] 879 µM | [28] > 1120 µM | [29] > 1120 µM | [30] > 1120 µM | [31] > 1120 µM | [32] > 1120 µM | [59] > 1.12 mM | [33] > 1120 µM | [37] > 1120 µM | [39] > 258 µM | [40] > 1120 µM | [41] 272 µM | [42] > 411 µM | [43] 89.3 µM | [44] > 1120 µM | [45] > 1120 µM | [46] > 1120 µM | [47] > 1120 µM | [48] > 1120 µM | [49] > 1120 µM | [60] 248 µM | [50] 333 µM | [51] > 252 µM | [52] > 1120 µM | [53] 635 µM | [55] > 150 µM | [56] > 1120 µM | [57] > 1120 µM | [58] > 1120 µM
> 1120 µM: [35]
